How the values were obtained:
Format in all cases: in vivo
[1] = system: ABUTH (Abutilon theoprasti); assay: Greenhouse preemergence herbicidal activity, ABUTH; conditions: 20 DAT
Protocol: (§1) The test plants have been seeded, separately for each species, in plastic containers in sandy loamy soil containing 5% of organic matter.
(§2) The containers were irrigated gently to promote germination and growth and subsequently covered with transparent plastic hoods until the plants had rooted.
(§3) The plants have been cultivated due to their individual requirements at 10-25° C. and 20-35° C. The plants were irrigated due to their necessity.
(§4) The racemic mixture (±)-2-exo-(2-Methylbenzyloxy)-1-methyl-4-isopropyl-7-oxabicyclo[2.2.1]heptane was used as herbicide A and formulated as emulsifiable concentrates with an active ingredient concentration of 50 g/l, 100 g/l or 750 g/l respectively.
(§5) Pyroxasulfone (herbicide B) was used as a water dispersible granule (85% WG).
(§6) In the following experiments, the herbicidal activity for the individual herbicidal compositions (solo and mixture applications) was assessed 20 days after treatment (DAT).
(§7) The evaluation for the damage on undesired weeds caused by the chemical compositions was carried out using a scale from 0 to 100%, compared to the untreated control plants. Here, 0 means no damage and 100 means complete destruction of the plants.
(§8) E=X+Y−(X·Y/100) where X=effect in percent using herbicide A at an application rate a; • Y=effect in percent using herbicide B at application rate b; • E=expected effect (in %) of herbicide A+herbicide B at application rates a+b.
(§9) The value E corresponds to the effect (plant damage or injury) which is to be expected if the activity of the individual compounds is additive. If the observed effect is higher than the value E calculated according to the Colby equation, a synergistic effect is present.

[2] = system: AMARE (Amaranthus retroflexus); assay: Greenhouse preemergence herbicidal activity, AMARE; conditions: pyroxasulfone solo 10 g ai/ha, 20 DAT
Protocol: as §1, §2, §3, §4, §5, §6
The evaluation for the damage on undesired weeds caused by the chemical compositions was carried out using a scale from 0 to 100%, compared to the untreated control plants. […]
as §9

[3] = system: ANTAR (Anthemis arvensis); assay: Greenhouse preemergence herbicidal activity, ANTAR; conditions: 20 DAT
Protocol: as §1, §2, §3, §4, §5, §6, §7, §8, §9

AVEFA (Avena fatua) [4] = assay: Greenhouse preemergence herbicidal activity, AVEFA; conditions: 20 DAT
Protocol: as §1, §2, §3, §4, §5, §6, §7, §8, §9

[5] = system: CHEAL (Chenopodium album); assay: Greenhouse preemergence herbicidal activity, CHEAL; conditions: 20 DAT
Protocol: as §1, §2, §3, §4, §5, §6, §7, §8, §9

GALAP (Galium aparine) = assay: Greenhouse preemergence herbicidal activity, GALAP; conditions: 20 DAT
Protocol: as §1, §2, §3, §4, §5, §6, §7, §8, §9

[6] = system: GERDI (Geranium dissectum); assay: Greenhouse preemergence herbicidal activity, GERDI; conditions: 20 DAT
Protocol: as §1, §2, §3, §4, §5, §6, §7, §8, §9

[7] = system: LOLMU (Lolium multiflorum); assay: Greenhouse preemergence herbicidal activity, LOLMU; conditions: 20 DAT
Protocol: as §1, §2, §3, §4, §5, §6, §7, §8, §9

[8] = system: POLCO (Polygonum convolvulus); assay: Greenhouse preemergence herbicidal activity, POLCO; conditions: 20 DAT
Protocol: as §1, §2, §3, §4, §5, §6, §7, §8, §9

STEME (Stellaria media) [9] = assay: Greenhouse preemergence herbicidal activity, STEME; conditions: 20 DAT
Protocol: as §1, §2, §3, §4, §5, §6, §7, §8, §9

[10] = system: AMARE (Amaranthus retroflexus); assay: Greenhouse postemergence herbicidal activity, AMARE; conditions: pyroxasulfone solo 45 g ai/ha, 20 DAT
Protocol: as §1
(§10) For the post emergence treatment, the plants were first grown to the 2 leaf station (GS 12). Here, the herbicidal compositions were suspended or emulsified in water as distribution medium and sprayed using finely distributing nozzels.
as §3, §4, §5
(§11) In the following experiments, the herbicidal activity for the individual herbicidal compositions (solo and mixture applications) was assessed 20 days after treatment (DAT). […]
as §9

[11] = system: ANTAR (Anthemis arvensis); assay: Greenhouse postemergence herbicidal activity, ANTAR; conditions: 20 DAT
Protocol: as §1, §10, §3, §4, §5, §6, §7, §8, §9

AVEFA (Avena fatua) [12] = assay: Greenhouse postemergence herbicidal activity, AVEFA; conditions: 20 DAT
Protocol: as §1, §10, §3, §4, §5, §6, §7, §8, §9

[13] = system: CHEAL (Chenopodium album); assay: Greenhouse postemergence herbicidal activity, CHEAL; conditions: 20 DAT
Protocol: as §1, §10, §3, §4, §5, §6, §7, §8, §9

[14] = system: LOLMU (Lolium multiflorum); assay: Greenhouse postemergence herbicidal activity, LOLMU; conditions: 20 DAT
Protocol: as §1, §10, §3, §4, §5, §6, §7, §8, §9

[15] = system: POLCO (Polygonum convolvulus); assay: Greenhouse postemergence herbicidal activity, POLCO; conditions: pyroxasulfone solo 45 g ai/ha, 20 DAT
Protocol: as §1, §10, §3, §4, §5, §11, §9

[16] = system: SORHA (Sorghum halepense); assay: Greenhouse postemergence herbicidal activity, SORHA; conditions: pyroxasulfone solo 11.25 g ai/ha, 20 DAT
Protocol: as §1, §10, §3, §4, §5, §11, §9

STEME (Stellaria media) [17] = assay: Greenhouse postemergence herbicidal activity, STEME; conditions: 20 DAT
Protocol: as §1, §10, §3, §4, §5, §6, §7, §8, §9

[18] = pyroxasulfone solo 11.25 g ai/ha
[19] = pyroxasulfone solo 22.5 g ai/ha

With `Cn1nc(C(F)(F)F)c(CS(=O)(=O)C2=NOC(C)(C)C2)c1OC(F)F` [pyroxasulfone, 3-[5-(difluoromethoxy)-1-methyl-3-(trifluoromethyl)pyrazol-4-ylmethylsulfonyl]-4,5-dihydro-5,5-dimethyl-1,2-oxazole] the herbicidal activity ([1]; pyroxasulfone solo 10 g ai/ha) was 0%, the herbicidal activity ([1]; pyroxasulfone solo 20 g ai/ha) was 30% and the herbicidal activity ([1]; pyroxasulfone solo 30 g ai/ha) was 50%. It also gave a herbicidal activity ([1]; pyroxasulfone solo 60 g ai/ha) of 50%, a herbicidal activity ([1]; pyroxasulfone solo 120 g ai/ha) of 98% and a herbicidal activity [2] of 95%. For the same molecule, the herbicidal activity ([3]; pyroxasulfone solo 15 g ai/ha) was 20%, the herbicidal activity ([3]; pyroxasulfone solo 20 g ai/ha) was 60% and the herbicidal activity ([3]; pyroxasulfone solo 30 g ai/ha) was 85%. For the same molecule, the herbicidal activity ([3]; pyroxasulfone solo 40 g ai/ha) was 70%, the herbicidal activity ([3]; pyroxasulfone solo 60 g ai/ha) was 95% and the herbicidal activity ([3]; pyroxasulfone solo 80 g ai/ha) was 75%. The herbicidal activity (AVEFA (Avena fatua) [4]; pyroxasulfone solo 10 g ai/ha) was 60%, the herbicidal activity (AVEFA (Avena fatua) [4]; pyroxasulfone solo 15 g ai/ha) was 65% and the herbicidal activity (AVEFA (Avena fatua) [4]; pyroxasulfone solo 20 g ai/ha) was 75%. It also gave a herbicidal activity (AVEFA (Avena fatua) [4]; pyroxasulfone solo 30 g ai/ha) of 80%, a herbicidal activity (AVEFA (Avena fatua) [4]; pyroxasulfone solo 40 g ai/ha) of 80% and a herbicidal activity (AVEFA (Avena fatua) [4]; pyroxasulfone solo 60 g ai/ha) of 95%. It also gave a herbicidal activity ([5]; pyroxasulfone solo 10 g ai/ha) of 50%, a herbicidal activity ([5]; pyroxasulfone solo 20 g ai/ha) of 90% and a herbicidal activity (GALAP (Galium aparine); pyroxasulfone solo 10 g ai/ha) of 30%. It also gave a herbicidal activity (GALAP (Galium aparine); pyroxasulfone solo 15 g ai/ha) of 0%, a herbicidal activity (GALAP (Galium aparine); pyroxasulfone solo 20 g ai/ha) of 70% and a herbicidal activity (GALAP (Galium aparine); pyroxasulfone solo 80 g ai/ha) of 98%. For the same molecule, the herbicidal activity ([6]; pyroxasulfone solo 30 g ai/ha) was 75%, the herbicidal activity ([6]; pyroxasulfone solo 40 g ai/ha) was 75% and the herbicidal activity ([7]; pyroxasulfone solo 10 g ai/ha) was 80%. For the same molecule, the herbicidal activity ([7]; pyroxasulfone solo 15 g ai/ha) was 98%, the herbicidal activity ([8]; pyroxasulfone solo 15 g ai/ha) was 0% and the herbicidal activity ([8]; pyroxasulfone solo 20 g ai/ha) was 0%. The herbicidal activity ([8]; pyroxasulfone solo 30 g ai/ha) was 20%, the herbicidal activity ([8]; pyroxasulfone solo 60 g ai/ha) was 80% and the herbicidal activity ([8]; pyroxasulfone solo 80 g ai/ha) was 80%. It also gave a herbicidal activity ([8]; pyroxasulfone solo 120 g ai/ha) of 90%, a herbicidal activity (STEME (Stellaria media) [9]; pyroxasulfone solo 10 g ai/ha) of 75% and a herbicidal activity (STEME (Stellaria media) [9]; pyroxasulfone solo 15 g ai/ha) of 98%. The herbicidal activity (STEME (Stellaria media) [9]; pyroxasulfone solo 30 g ai/ha) was 98%, the herbicidal activity [10] was 25% and the herbicidal activity ([11]; pyroxasulfone solo 15 g ai/ha) was 40%. The herbicidal activity ([11]; pyroxasulfone solo 60 g ai/ha) was 90%, the herbicidal activity (AVEFA (Avena fatua) [12]; [18]) was 50% and the herbicidal activity (AVEFA (Avena fatua) [12]; [19]) was 50%. It also gave a herbicidal activity [13, 18] of 80%, a herbicidal activity ([13]; pyroxasulfone solo 15 g ai/ha) of 85% and a herbicidal activity [13, 19] of 65%. For the same molecule, the herbicidal activity ([13]; pyroxasulfone solo 45 g ai/ha) was 85%, the herbicidal activity ([13]; pyroxasulfone solo 90 g ai/ha) was 95% and the herbicidal activity ([13]; pyroxasulfone solo 120 g ai/ha) was 95%. For the same molecule, the herbicidal activity [14, 18] was 55%, the herbicidal activity ([14]; pyroxasulfone solo 15 g ai/ha) was 70% and the herbicidal activity [14, 19] was 55%. The herbicidal activity [15] was 80%, the herbicidal activity [16] was 70% and the herbicidal activity (STEME (Stellaria media) [17]; [18]) was 0%. For the same molecule, the herbicidal activity (STEME (Stellaria media) [17]; pyroxasulfone solo 15 g ai/ha) was 40%, the herbicidal activity (STEME (Stellaria media) [17]; [19]) was 0% and the herbicidal activity (STEME (Stellaria media) [17]; pyroxasulfone solo 45 g ai/ha) was 45%. The herbicidal activity (STEME (Stellaria media) [17]; pyroxasulfone solo 60 g ai/ha) was 80%.

Reference: US10980232B2, “Herbicidal composition comprising cinmethylin and pyroxasulfone” (BASF Agro B.V., priority 2015, dated 2021)
